In general, TGI refers to the concentration giving total growth inhibition. Higher therefore signals lower sensitivity of the cells.

From PubChem BioAssay (NCI) come the findings set out here.

Experiment in all cases: DTP human tumour cell line panel, 48 h
In assay [1] the test system is SF-295 CNS.
Assay [2] concerns A498 renal.
Assay [3] concerns ACHN renal.
Assay [4] has as its system MCF7 breast.
In assay [5] the test system is COLO 205 colon.
The subject of assay [6] is PC-3 prostate.
For assay [7], the system named is K-562 leukemia.
For assay [8], the system named is UACC-257 melanoma.
For assay [9], the system named is RPMI-8226 leukemia.
Assay [10] relates to HCT-15 colon.

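Values below derive from 48-hour exposures of cells grown in 96-well plates, with endpoints linearly interpolated between the two concentrations bracketing the appropriate inhibition level. TGI denotes the concentration required for complete inhibition of growth.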 A value given as a limit tells only on which side of the number the result lay.

For the compound `CC(CSC(=N)N)C(N)=O` (stereo not given), the TGI in [1], in assay [2], in assay [3], in assay [4], in [5] and in assay [6] was above 100 µM throughout. Also, the total growth inhibition concentration (TGI) in assay [7], in assay [8], in assay [9] and in assay [10] was above 100 µM in each case.

In the case of `Cc1ccc(S(=O)c2cccs2)cc1` (stereo not given), the TGI in [1], in assay [2], in [3], in [4], in assay [5] and in [6] was above 100 µM in each case. The total growth inhibition concentration (TGI) in assay [7], in assay [8], in assay [9] and in [10] was above 100 µM throughout.

Turning to `O=C(NCCN1CCCCC1)c1ccc(Br)cc1`, the total growth inhibition concentration (TGI) in assay [1], in assay [2], in assay [3], in assay [4], in assay [5] and in assay [6] was above 100 µM in each case. In addition, the TGI in assay [7], in assay [8], in assay [9] and in [10] was above 100 µM in each case.

For the compound `CC1=NN(c2nc(N)nc(NS(=O)(=O)c3cc(C)c(Cl)cc3S)n2)C(C)(C)C1`, the TGI in assay [1], in [2], in assay [3], in assay [4], in [5] and in [6] was above 10 µM in each case. In addition, the total growth inhibition concentration (TGI) in [7], in assay [8], in assay [9] and in assay [10] was above 10 µM each time.

Consider `CS(=O)(=O)N1CC(CCl)c2ccc(NO)cc21` (stereo not given), for which the TGI in assay [1] was 61.9 µM; in [2], 31.5 µM; in assay [3], 21 µM; in assay [4] it was 35.5 µM; in [5] it was above 57.2 µM; in assay [6], 39.5 µM. The concentration for total growth inhibition (TGI) was determined as 8.58 µM in [7], 40.6 µM in assay [8], 16 µM in [9] and 28.6 µM in assay [10].

Turning to `COc1nc(N=P(c2ccccc2)(c2ccccc2)c2ccccc2)cc(=O)n1C`, the TGI in assay [1], in [2], in [3], in assay [4], in assay [5] and in assay [6] was above 100 µM throughout. Besides, the concentration for total growth inhibition (TGI) in assay [7], in assay [8], in assay [9] and in assay [10] was above 100 µM each time.

Take `O=C1N/C(=N\N=C\c2ccccc2)C(c2ccccc2)O1` (stereo not given): the TGI in assay [1], in assay [2], in assay [3], in assay [4], in [5] and in assay [6] was above 100 µM throughout. Also, the total growth inhibition concentration (TGI) in [7], in assay [8], in assay [9] and in assay [10] was above 100 µM in each case.

As for `FC(F)(F)c1ccc(C2ON=C(c3ccccc3)N2C23CC4CC(CC(C4)C2)C3)cc1` (stereo not given), the total growth inhibition concentration (TGI) in assay [1], in assay [2], in assay [3], in [4], in assay [5] and in [6] was above 10 µM in each case. Besides, the concentration for total growth inhibition (TGI) in assay [7], in assay [8], in assay [9] and in assay [10] was above 10 µM each time.

On to `O=C/C(=C1/C=Cc2cc([N+](=O)[O-])ccc2S1)c1ccccc1`, for which the TGI in assay [1], in [2], in assay [3], in [4], in assay [5] and in assay [6] was above 100 µM each time. In addition, the TGI in [7], in [8], in [9] and in assay [10] was above 100 µM in each case.

Consider `O=c1[nH]/c(=C/c2ccc3c(c2)OCO3)c(=O)[nH]/c1=C/c1ccc2c(c1)OCO2`, for which the TGI in [1], in [2], in assay [3], in assay [4], in assay [5] and in [6] was above 10 µM in each case. Besides, the TGI in assay [7], in assay [8], in assay [9] and in [10] was above 10 µM in each case.

In the case of `O=[N+]([O-])c1ccc(SN=S=NSc2cccc(SN=S=NSc3ccc([N+](=O)[O-])cc3)c2)cc1`, the TGI in [1] was above 100 µM; in assay [2] it was above 100 µM; in assay [3] it was above 100 µM; in assay [4] it was 75 µM; in assay [5], above 100 µM; in [6], 40.1 µM. The TGI in assay [7] was above 100 µM; in [8], above 100 µM; in assay [9] it was above 100 µM; in assay [10], 57.8 µM.

For `CNC(=O)c1n[nH]n(C2CCCCC2)c1=S`, the TGI in assay [1], in [2], in [3], in assay [4], in assay [5] and in assay [6] was above 100 µM throughout. The TGI in assay [7], in assay [8], in [9] and in assay [10] was above 100 µM throughout.

For the compound `CN(C)CCN(C)P12(Oc3ccccc3O1)Oc1c(Cl)c(Cl)c(Cl)c(Cl)c1O2`, the TGI in assay [1], in [2], in [3], in assay [4], in assay [5] and in [6] was above 100 µM throughout. Also, the TGI in assay [7] was above 100 µM; in assay [8] it was 85.5 µM; in assay [9], above 100 µM; in assay [10], above 100 µM.
